Reference: publication PMC4864240, “Biotype Characterization, Developmental Profiling, Insecticide Response and Binding Property of Bemisia tabaci Chemosensory Proteins: Role of CSP in Insect Defense” (PLoS ONE, 2016)
Like-named read-outs stand apart in the source and are kept apart here.

Legend:
Assay in all cases: biochemical
Format in all cases: binding
BtabCSP3 = molecular target: T1, BtabCSP3 (Bemisia tabaci, UniProt A0A097GUB5)
T1 sequence (A0A097GUB5 21-138): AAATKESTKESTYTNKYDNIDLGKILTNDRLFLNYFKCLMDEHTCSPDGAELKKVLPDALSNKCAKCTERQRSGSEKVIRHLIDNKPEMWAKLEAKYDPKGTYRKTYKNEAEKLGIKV
Experimental: (§1) Protein-ligand binding affinity was determined for the three recombinant proteins. Emission fluorescence spectra were recorded on a Jasco FP-6500 Series fluorescence spectrofluorometer. […] Fluorescence was measured using an exciting wavelength of 337 nm. Emission spectrum was recorded between 350 and 500 nm.

BtabCSP2 = molecular target: T2, BtabCSP2 (Bemisia tabaci, UniProt H6UKS9)
T2 sequence (H6UKS9 22-131): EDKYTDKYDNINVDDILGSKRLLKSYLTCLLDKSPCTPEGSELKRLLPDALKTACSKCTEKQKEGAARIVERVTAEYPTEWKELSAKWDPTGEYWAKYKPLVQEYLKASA
Experimental: as §1

BtabCSP1 = molecular target: T3, BtabCSP1 (Bemisia tabaci, UniProt D6N3A3)
T3 sequence (D6N3A3 20-126): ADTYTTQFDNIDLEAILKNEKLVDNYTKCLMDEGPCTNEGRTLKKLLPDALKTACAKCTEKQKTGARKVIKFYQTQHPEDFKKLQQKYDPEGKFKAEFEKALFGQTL
Experimental: as §1

[1] = BtabCSP1 Ki (u.d.), u.d. = binding constant not calculated, IC50>100 μM
[2] = u.d. = binding constant not calculated, IC50>100 μM, read-out: BtabCSP3 Ki (u.d.)
[3] = u.d. = binding constant not calculated, IC50>100 μM, read-out: BtabCSP2 Ki (u.d.)
[4] = u.d. = binding constant not calculated, IC50>100 μM, read-out: BtabCSP1 Ki (u.d.)
[5] = displacement of 1-NPN, read-out: IC50, BtabCSP1
[6] = competitive binding vs 1-NPN, three replicates ± SD, read-out: BtabCSP1 Ki

Compound | Ki (BtabCSP3; [2]) [µM] | Ki (BtabCSP2; [3]) [µM] | Ki (BtabCSP1; [4]) [µM] | other results
c1ccc(Nc2cccc3ccccc23)cc1 [1-NPN] |  |  |  | Kd (BtabCSP3; direct titration, Scatchard plot, read-out: binding constant of 1-NPN to CSP3): 15.3 µM; Kd (BtabCSP2; direct titration, Scatchard plot, read-out: binding constant of 1-NPN to CSP2): 20.8 µM; Kd (BtabCSP1; direct titration, Scatchard plot, read-out: binding constant of 1-NPN to CSP1): 11.7 µM
CC(=O)CCC=C(C)C [6-Methyl-5-hepten-2-one] |  |  |  | Ki (BtabCSP3): > 100 µM; Ki (BtabCSP2): > 100 µM; IC50 (BtabCSP1): 14.6 to 95.1 µM; Ki (BtabCSP1; [1]): > 100 µM
CCCC(O)CC (stereo not drawn) [3-Hexanol] | > 100 | > 100 | > 100 | 
CCCCCCCC(=O)O [Octanoic acid] | > 100 | > 100 | > 100 | IC50 (BtabCSP1; [5]): 14.6 to 95.1 µM
CC1=CC=C(C(C)C)CC1 [α-Terpinene] | > 100 | > 100 | > 100 | IC50 (BtabCSP1; [5]): 14.6 to 95.1 µM
CCCCCOC(C)=O [Amyl acetate] | > 100 | > 100 | > 100 | 
CCCCCCOC(C)=O [Hexyl acetate] | > 100 | > 100 | > 100 | 
S(-)-Limonene | > 100 | > 100 |  | Ki (BtabCSP1; [6]): 82.2 ± 3.47 µM
C=CC(=C)CC/C=C(\C)CCC=C(C)C [E-β-Farnesene] | > 100 | > 100 | > 100 | 
CCCCCC=O [n-Hexaldehyde] | > 100 | > 100 | > 100 | 
C=CCc1ccc(O)c(OC)c1 [Eugenol] | > 100 | > 100 | > 100 | 
C=C(C)[C@H]1CC=C(C)CC1 [R(+)-Limonene] | > 100 | > 100 |  | Ki (BtabCSP1; [6]): 47.8 ± 1.56 µM
CC/C=C\CCO [Z3-Hexen-1-ol] | > 100 | > 100 | > 100 | 
Cc1cccc(C)c1 [m-Xylene] | > 100 | > 100 |  | Ki (BtabCSP1; [6]): 55.5 ± 3.14 µM; IC50 (BtabCSP1; [5]): 14.6 to 95.1 µM
CC(=O)/C=C/C1=C(C)CCCC1(C)C [β-Ionone] |  |  |  | Ki (BtabCSP3): > 100 µM; Ki (BtabCSP2): > 100 µM; IC50 (BtabCSP1): 14.6 to 95.1 µM; Ki (BtabCSP1; BtabCSP1 Ki, competitive binding vs 1-NPN, three replicates ± SD): 32.1 ± 1.48 µM
CCCCCCCCCCCCC [n-Tridecane] | > 100 | > 100 | > 100 | 
CC(=O)c1ccc(C)cc1C [2, 4′-Dimethylacetophenone] |  |  |  | Ki (BtabCSP3): > 100 µM; Ki (BtabCSP2): > 100 µM; Ki (BtabCSP1; [1]): > 100 µM
CCCCC=O [Valeraldehyde] | > 100 | > 100 | > 100 | 
CCCCC(CC)CO (stereo not drawn) [2-Ethyl-hexanol] | > 100 | > 100 | > 100 | 
C=C(C)C1CC=C(C)[C@@H](O)C1 (single isomer, unassigned; (-)) [(-)-Carveol] | > 100 | > 100 | > 100 | 
C=CC(C)=CCC=C(C)C [Ocimene] | > 100 | > 100 | > 100 | 
C=C1CCC2CC1C2(C)C (stereo not drawn) [β-Pinene] | > 100 | > 100 | > 100 | 
CCC/C=C/COC(=O)CCC [(E)-2-Hexenyl butyrate] | > 100 | > 100 | > 100 | 
CC1=CCC2CC1C2(C)C (stereo not drawn) [α-Pinene] | > 100 | > 100 | > 100 | 
CCCCC/C=C\C/C=C\CCCCCCCC(=O)O [Linoleic acid] |  | > 100 |  | Ki (BtabCSP3; competitive binding vs 1-NPN, three replicates ± SD, read-out: BtabCSP3 Ki): 43.5 ± 2.86 µM; IC50 (BtabCSP3; displacement of 1-NPN): 48.5 ± 3.42 µM; IC50 (BtabCSP2; displacement of 1-NPN): > 100 µM; Ki (BtabCSP1; [6]): 5.78 ± 0.39 µM; IC50 (BtabCSP1; [5]): 6.7 ± 0.52 µM
CCCCCCCO [1-Heptanol] | > 100 | > 100 | > 100 | 
CC/C=C\CCOC(C)=O [(Z)-3-Hexenyl acetate] | > 100 | > 100 | > 100 | 
CCCCCCO [1-Hexanol] | > 100 | > 100 |  | Ki (BtabCSP1; [6]): 46.8 ± 1.37 µM; IC50 (BtabCSP1; [5]): 14.6 to 95.1 µM
